Measurements reported in patent US8048892B2, “Azaquinolone based compounds exhibiting prolyl hydroxylase inhibitory activity, compositions, and uses thereof” (Amgen Inc., priority 2006, dated 2011).
Where a name gives a salt, the structure may show the parent alone.

Biological target: HIF PHD2 (Homo sapiens, UniProt Q9GZT9)
Experiment: PHD2 inhibition assay (TR-FRET, VCB-Eu detection of hydroxylated P564-HIF1α peptide)
Assay type: biochemical
Settings: 2 nM PHD2, 100 nM P564-HIF1α peptide, 0.25 μM 2-oxoglutarate
Procedure, shortened: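 Human PHD2 (2 nM final) preincubated 1 h at room temperature with compound and 100 μM FeCl2 in pH 6 MES buffer, 5% DMSO final. Reaction with 100 nM biotinylated P564-HIF1α peptide, 2 mM ascorbate and 0.25 μM 2-oxoglutarate for 1 h, stopped with succinate. Hydroxylation read by TR-FRET (VCB-Eu/streptavidin-APC, 655/615 nm); IC50 from 4-parameter fit of percent of control.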

HIF PHD2, sequence (Q9GZT9 whole entry): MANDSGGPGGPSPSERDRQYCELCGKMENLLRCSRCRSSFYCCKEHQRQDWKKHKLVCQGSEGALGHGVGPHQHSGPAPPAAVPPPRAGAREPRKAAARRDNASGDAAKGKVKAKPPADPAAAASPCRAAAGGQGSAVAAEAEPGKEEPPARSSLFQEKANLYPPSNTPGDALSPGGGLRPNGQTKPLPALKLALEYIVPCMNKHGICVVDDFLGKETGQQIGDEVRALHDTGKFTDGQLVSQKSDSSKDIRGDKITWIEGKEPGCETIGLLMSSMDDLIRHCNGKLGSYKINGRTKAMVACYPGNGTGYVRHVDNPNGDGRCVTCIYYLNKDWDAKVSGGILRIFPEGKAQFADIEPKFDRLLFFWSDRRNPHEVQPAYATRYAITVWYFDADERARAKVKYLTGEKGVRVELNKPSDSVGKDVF

Structure (SMILES)	IC50 [µM]
Cn1c(=O)c(C(=O)NCC(=O)O)c(O)c2c(Br)nccc21 [Example 130, 2-(5-Bromo-4-hydroxy-1-methyl-2-oxo-1,2-dihydro-1,6-naphthyridine-3-carboxamido)acetic acid, Trifluoroacetic acid salt]	< 0.05
Cn1c(=O)c(C(=O)NCC(=O)O)c(O)c2c(Cl)nccc21 [Example 131, 2-(5-Chloro-4-hydroxy-1-methyl-2-oxo-1,2-dihydro-1,6-naphthyridine-3-carboxamido)acetic acid]	< 0.05
Cn1c(=O)c(C(=O)NCC(=O)O)c(O)c2c(C(F)(F)F)nccc21 [Example 132, 2-(4-Hydroxy-1-methyl-2-oxo-5-(trifluoromethyl)-1,2-dihydro-1,6-naphthyridine-3-carboxamido)acetic acid, Trifluoroacetic acid salt]	0.05 to 0.1
Cn1c(=O)c(C(=O)N[C@@H](CO)C(=O)O)c(O)c2cc(C3=CCCCC3)cnc21 [Example 133, (S)-2-(6-cyclohexenyl-4-hydroxy-1-methyl-2-oxo-1,2-dihydro-1,8-naphthyridine-3-carboxamido)-3-hydroxypropanoic acid]	0.5 to 1
